Consider 30 molecules from US20060252807A1, “Novel ortho-terphenyl inhibitors of p38 kinase and methods of treating inflammatory disorders” (Kalypsys, Inc., priority 2005, published 2006).

This experiment deals with T1, active p38 alpha enzyme (Upstate Biotechnology) (Homo sapiens, UniProt Q16539).
T1 construct: purchased Upstate Biotechnology
As to the kind of experiment: p38α biochemical assay (ATP turnover, luminescent detection, Cambrex PKlight). As to conditions: p38α kinase; Table 1 Biological Activity. In a few lines: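 In this kinase reaction, p38α used MapkapK2 as phosphorylation substrate at low ATP (1.4 uM final) over 2 hours at 30C, and activity was followed as ATP turnover by luminescence.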

T1 sequence (Q16539 whole entry): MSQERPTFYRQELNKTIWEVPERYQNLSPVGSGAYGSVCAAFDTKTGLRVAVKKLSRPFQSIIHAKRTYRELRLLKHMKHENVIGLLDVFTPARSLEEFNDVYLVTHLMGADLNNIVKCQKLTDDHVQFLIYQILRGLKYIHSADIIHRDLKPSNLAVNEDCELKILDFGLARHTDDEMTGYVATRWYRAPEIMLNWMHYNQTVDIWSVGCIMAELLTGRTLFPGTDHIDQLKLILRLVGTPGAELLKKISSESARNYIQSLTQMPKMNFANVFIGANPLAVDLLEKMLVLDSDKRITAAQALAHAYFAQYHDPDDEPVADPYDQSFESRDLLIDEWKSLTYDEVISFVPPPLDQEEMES

As usually defined, the IC50 is the concentration at which inhibition is half-maximal. Read a low IC50 as higher potency. `CC(=O)N1CCC(n2cnc(-c3ccc(Cl)cc3)c2-c2nc(C(=O)NC(C)C)cs2)CC1` [Example 2163]: the IC50 was ≤ 1000 nM.
In the case of `CC(C)NC(=O)c1csc(-c2c(-c3ccc(F)cc3)n[nH]c2C2CCN(C(=O)[C@H](C)O)CC2)n1` [Example 2165, 2-{3-(4-Fluoro-phenyl)-5-|1-(2-hydroxy-propionyl)-piperidin-4-yl|-1H-pyrazol-4-yl}-thiazole-4-carboxylic acid isopropylamide], the IC50 was ≤ 1000 nM.
For `CC(C)NC(=O)c1csc(-c2c(-c3ccc(F)cc3)n[nH]c2C2CCN(C(=O)C(C)(C)O)CC2)n1` [Example 2166, 2-{3-(4-Fluoro-phenyl)-5-|1-(2-hydroxy-2-methyl-propionyl)-piperidin-4-yl|-1H-pyrazol-4-yl}-thiazole-4-carboxylic acid isopropylamide], the IC50 is ≤ 1000 nM.
Consider `CC(=O)N1CCC(c2[nH]nc(-c3ccc(F)cc3)c2-c2nc(C(=O)NC(C)C)cs2)CC1` [Example 2167, 2-|5-(1-Acetyl-piperidin-4-yl)-3-(4-fluoro-phenyl)-1H-pyrazol-4-yl|-thiazole-4-carboxylic acid isopropylamide], for which the concentration for half-maximal inhibition (IC50) is ≤ 1000 nM.
Consider `COCCOCC(=O)N1CCC(c2[nH]nc(-c3ccc(F)cc3)c2-c2nc(C(=O)NC(C)C)cs2)CC1` [Example 2168, 2-(3-(4-Fluoro-phenyl)-5-{1-|2-(2-methoxy-ethoxy)-acetyl|-piperidin-4-yl}-1H-pyrazol-4-yl)-thiazole-4-carboxylic acid isopropylamide], for which the IC50 is ≤ 1000 nM.
Next, `CC(C)NC(=O)c1csc(-c2c(-c3ccc(F)cc3)n[nH]c2C2CCN(C(=O)c3ccccn3)CC2)n1` [Example 2169, 2-{3-(4-Fluoro-phenyl)-5-|1-(pyridine-2-carbonyl)-piperidin-4-yl|-1H-pyrazol-4-yl}-thiazole-4-carboxylic acid isopropylamide]: ≤ 1000 nM; `CC(C)NC(=O)c1csc(-c2c(-c3ccc(F)cc3)n[nH]c2C2CCN(C(=O)c3ccccc3)CC2)n1` [Example 2170, 2-|5-(1-Benzoyl-piperidin-4-yl)-3-(4-fluoro-phenyl)-1H-pyrazol-4-yl|-thiazole-4-carboxylic acid isopropylamide]: > 1000 nM.
Under `CC(C)NC(=O)c1csc(-c2c(-c3ccc(F)cc3)n[nH]c2C2CCN(C(=O)c3ccc(C#N)cc3)CC2)n1` [Example 2171, 2-|5-|1-(4-Cyano-benzoyl)-piperidin-4-yl|-3-(4-fluoro-phenyl)-1H-pyrazol-4-yl|-thiazole-4-carboxylic acid isopropylamide] stands > 1000 nM.
Turning to `COC(=O)N1CCC(c2[nH]nc(-c3ccc(F)cc3)c2-c2nc(C(=O)NC(C)C)cs2)CC1` [Example 2172, 4-|5-(4-Fluoro-phenyl)-4-(4-isopropyl-carbamoyl-thiazol-2-yl)-2H-pyrazol-3-yl|-piperidine-1-carboxylic acid methyl ester], the concentration for half-maximal inhibition (IC50) is ≤ 1000 nM.
On to `COCC(=O)N1CCC(c2[nH]nc(-c3ccc(F)cc3)c2-c2nc(C(=O)NC(C)C)cs2)CC1` [Example 2173, 2-{3-(4-Fluoro-phenyl)-5-|1-(2-methoxy-acetyl)-piperidin-4-yl|-1H-pyrazol-4-yl}-thiazole-4-carboxylic acid isopropylamide], for which the IC50 is ≤ 1000 nM.
Consider `CC(C)NC(=O)c1csc(-c2c(-c3ccc(F)cc3)n[nH]c2C2CCN(C(=O)C(F)(F)F)CC2)n1` [Example 2174, 2-{3-(4-Fluoro-phenyl)-5-|1-(2,2,2-trifluoro-acetyl)-piperidin-4-yl|-1H-pyrazol-4-yl}-thiazole-4-carboxylic acid isopropylamide], for which the half-maximal inhibitory concentration (IC50) was ≤ 1000 nM.
Under `CC(C)NC(=O)c1csc(-c2c(-c3ccc(F)cc3)n[nH]c2C2CCN(C(=O)c3ncc[nH]3)CC2)n1` [Example 2175, 2-{3-(4-Fluoro-phenyl)-5-|1-(1H-imidazole-2-carbonyl)-piperidin-4-yl|-1H-pyrazol-4-yl}-thiazole-4-carboxylic acid isopropylamide] stands ≤ 1000 nM.
Regarding `CC(=O)C(=O)N1CCC(c2[nH]nc(-c3ccc(F)cc3)c2-c2nc(C(=O)NC(C)C)cs2)CC1` [Example 2176, 2-{3-(4-Fluoro-phenyl)-5-|1-(2-oxo-propionyl)-piperidin-4-yl|-1H-pyrazol-4-yl}-thiazole-4-carboxylic acid isopropylamide], the IC50 is ≤ 1000 nM.
For the molecule `CC(=O)NCC(=O)N1CCC(c2[nH]nc(-c3ccc(F)cc3)c2-c2nc(C(=O)NC(C)C)cs2)CC1` [Example 2177, 2-|5-|1-(2-Acetylamino-acetyl)-piperidin-4-yl|-3-(4-fluoro-phenyl)-1H-pyrazol-4-yl|-thiazole-4-carboxylic acid isopropylamide], the IC50 is ≤ 1000 nM.
Next, `CC(C)NC(=O)c1csc(-c2c(-c3ccc(F)cc3)n[nH]c2C2CCN(C(=O)c3ccncc3)CC2)n1` [Example 2178, 2-{3-(4-Fluoro-phenyl)-5-|1-(pyridine-4-carbonyl)-piperidin-4-yl|-1H-pyrazol-4-yl}-thiazole-4-carboxylic acid isopropylamide]: ≤ 1000 nM; `CC(C)NC(=O)c1csc(-c2c(-c3ccc(F)cc3)n[nH]c2C2CCN(C(=O)c3cccnc3)CC2)n1` [Example 2179, 2-{3-(4-Fluoro-phenyl)-5-|1-(pyridine-3-carbonyl)-piperidin-4-yl|-1H-pyrazol-4-yl}-thiazole-4-carboxylic acid isopropylamide]: ≤ 1000 nM.
For `CC(C)NC(=O)c1csc(-c2[nH][nH]c(=O)c2-c2ccc(F)cc2)n1` [Example 2180, 2-|4-(4-Fluoro-phenyl)-5-oxo-2,5-dihydro-1H-pyrazol-3-yl|-thiazole-4-carboxylic acid isopropylamide], the half-inhibitory concentration (IC50) is ≤ 1000 nM.
For the molecule `CC(C)NC(=O)c1csc(-c2c(-c3ccc(F)cc3)c(=O)[nH]n2C)n1` [Example 2182, 2-|4-(4-Fluoro-phenyl)-2-methyl-5-oxo-2,5-dihydro-1H-pyrazol-3-yl|-thiazole-4-carboxylic acid isopropyl amide], the 50% inhibitory concentration (IC50) was > 1000 nM.
Next, `CC(C)NC(=O)c1csc(-c2c(-c3ccc(F)cc3)c(=O)[nH]n2C2CCN(C(=O)OCc3ccccc3)CC2)n1` [Example 2183, 4-|4-(4-Fluoro-phenyl)-5-(4-isopropylcarbamoyl-thiazol-2-yl)-3-oxo-2,3-dihydro-pyrazol-1-yl|-piperidine-1-carboxylic acid benzyl ester]: > 1000 nM.
Next, `CC(=O)N1CCC(c2onc(-c3ccc(F)cc3)c2-c2nc(C(=O)NC(C)C)cs2)CC1` [Example 2184, 2-|5-(1-Acetyl-piperidin-4-yl)-3-(4-fluoro-phenyl)-isoxazol-4-yl|-thiazole-4-carboxylic acid isopropylamide]: ≤ 1000 nM; `O=C(NCC(F)(F)F)c1csc(-c2c(-c3ccc(F)cc3)ncn2C2CCNCC2)n1` [Example 2185, 2-|5-(4-Fluoro-phenyl)-3-piperidin-4-yl-3H-imidazol-4-yl|-thiazole-4-carboxylic acid (2,2,2-trifluoro-ethyl)-amide]: ≤ 1000 nM.
Consider `CC(C)NC(=O)c1ccn(-c2c(-c3ccc(F)cc3)noc2C2CCNCC2)n1` [Example 2188, 1-|3-(4-Fluoro-phenyl)-5-piperidin-4-yl-isoxazol-4-yl|-1H-pyrazole-3-carboxylic acid isopropylamide], for which the IC50 was > 1000 nM.
Next, `CC(C)NC(=O)c1csc(-c2c(-c3ccc(F)cc3)ncn2C2CC(C)(C)NC(C)(C)C2)n1` [Example 2189, 2-|5-(4-Fluoro-phenyl)-3-(2,2,6,6-tetramethyl-piperidin-4-yl)-3H-imidazol-4-yl|-thiazole-4-carboxylic acid isopropylamide]: > 1000 nM; `O=C(NC1CCCC1)c1csc(-c2c(-c3ccc(F)cc3)ncn2C2CCNCC2)n1` [Example 2190, 2-|5-(4-Fluoro-phenyl)-3-piperidin-4-yl-3H-imidazol-4-yl|-thiazole-4-carboxylic acid cyclopentylamide]: ≤ 1000 nM; `O=C(NC1CCCCC1)c1csc(-c2c(-c3ccc(F)cc3)ncn2C2CCNCC2)n1` [Example 2191, 2-|5-(4-Fluoro-phenyl)-3-piperidin-4-yl-3H-imidazol-4-yl|-thiazole-4-carboxylic acid cyclohexylamide]: ≤ 1000 nM.
Under `CCN(C(=O)NCCCN(C)C)C(=O)c1csc(-c2c(-c3ccc(F)cc3)ncn2C2CCNCC2)n1` [Example 2192, 3-(3-Dimethylamino-propyl)-1-ethyl-1-{2-|5-(4-fluoro-phenyl)-3-piperidin-4-yl-3H-imidazol-4-yl|-thiazole-4-carbonyl}-urea] stands > 1000 nM; under `CC(C)NC(=O)c1csc(-c2c(-c3ccc(F)cc3)ncn2C2CCN(CCO)CC2)n1` [Example 2193, 2-{5-(4-Fluoro-phenyl)-3-|1-(2-hydroxy-ethyl)-piperidin-4-yl|-3H-imidazol-4-yl}-thiazole-4-carboxylic acid isopropylamide], > 1000 nM; under `CC(=O)N1CCC(n2cnc(-c3ccc(F)cc3)c2-c2nc(C(=O)NC(C)C)cs2)CC1` [Example 2194, 2-|3-(1-Acetyl-piperidin-4-yl)-5-(4-fluoro-phenyl)-3H-imidazol-4-yl|-thiazole-4-carboxylic acid isopropylamide], ≤ 1000 nM.
As to `Cc1[nH]nc(-c2ccc(F)cc2)c1-c1nc(C(=O)NC(C)C)ns1` [Example 2195, 5-|3-(4-Fluoro-phenyl)-5-methyl-1H-pyrazol-4-yl|-|1,2,4|thiadiazole-3-carboxylic acid isopropylamide], the IC50 was > 1000 nM.
Under `Cc1[nH]nc(-c2ccc(F)cc2)c1-c1nc(C(=O)NC(C)C)no1` [Example 2196, 5-|3-(4-Fluoro-phenyl)-5-methyl-1H-pyrazol-4-yl|-|1,2,4|oxadiazole-3-carboxylic acid isopropylamide] stands > 1000 nM.
